Measurements as given in ChEMBL document CHEMBL5724709, “EUbOPEN Chemogenomics Library - IncuCyte” (2024).
Square brackets hold non-standard residues; d marks the D form. Peptide text beside a SMILES is read from it. * marks the point of attachment. Benzoyl(4-OPh) = O=C(c1ccc(Oc2ccccc2)cc1)*; Benzoyl(4-tBu) = CC(C)(C)c1ccc(C(=O)*)cc1; Lys(Et2) = CCN(CC)CCCC[C@H](N)C(=O)O; d(aIle) = CC[C@H](C)[C@@H](N)C(=O)O; Gly(cPent) = N[C@H](C(=O)O)C1CCCC1; Nle = CCCC[C@H](N)C(=O)O; Cbz = O=C(OCc1ccccc1)*; NH(propargyl) = C#CCN*; Boc = CC(C)(C)OC(=O)*; CH2Cl = ClC*; CH2F = FC*

Columns and labels:
Format in all cases: toxicity, cell-based
HEK-293T = test: Incucyte cell viability with HEK293T; conditions: human, 24 h, 10 µM, compound concentration 10 uM
Fibroblast = test: Incucyte cell viability with human fibroblast; conditions: 24 h, 10 µM, compound concentration 10 uM
U2OS = test: Incucyte cell viability with U2OS; conditions: human, 24 h, 10 µM, compound concentration 10 uM
Further: unitless GR value; below 1 slowed growth and below 0 cell loss.

Row | SMILES | Growth Rate (HEK-293T; replicate number 1) | Growth Rate (HEK-293T; replicate number 2) | Growth Rate (Fibroblast; replicate number 1) | Growth Rate (Fibroblast; replicate number 2) | Growth Rate (U2OS; replicate number 1) | Growth Rate (U2OS; replicate number 2)
1 | O=C(NO)c1ccc(CN2CCCc3cc(Cl)ccc32)cc1 | 0.69 | 0.85 | 0.78 | -0.22 | 0 | 0.79
2 | COc1cccc(OC)c1S(=O)(=O)Nc1noc2cc(Cn3cccn3)cc(OC)c12 | 0.71 | 0.55 | 0.79 | 1 | 0.39 | 1
3 | CC(=O)N[C@@H](C)C(=O)N[C@@H](CCC(=O)O)C(=O)N[C@H](C(=O)N[C@@H](C=O)CC(=O)O)C(C)C (Ac-AEV[dD]-aldehyde) | 0.78 | 1 | 0.31 | 0.14 | 0.88 | 0.76
4 | CSCC[C@H](NC(=O)[C@H](CC(=O)O)NC(C)=O)C(=O)N[C@@H](CCC(N)=O)C(=O)N[C@H](C=O)CC(=O)O.O=C(O)C(F)(F)F (Ac-DMQD-aldehyde) | 1 | 0.97 | 0.25 | 1 | 1 | –
5 | CC(=O)N[C@@H](Cc1ccccc1)C(=O)N[C@@H](CC(C)C)C(=O)N[C@H](C(=O)N[C@@H](CC(=O)O)C(=O)CCl)[C@@H](C)O (Ac-FLTD-CH2Cl) | 0.96 | 0.99 | 0.51 | 1 | 0.81 | 0.66
6 | CC[C@H](C)[C@H](NC(C)=O)C(=O)N[C@@H](CCC(=O)O)C(=O)N[C@H](C(=O)N[C@H](C=O)CC(=O)O)[C@@H](C)O.O=C(O)C(F)(F)F (Ac-IETD-aldehyde) | 0.57 | 1 | 0.25 | 0.42 | 1 | –
7 | CC(=O)N[C@@H](CC(C)C)C(=O)N[C@@H](CCC(=O)O)C(=O)N[C@@H](Cc1cnc[nH]1)C(=O)N[C@@H](CC(=O)O)C(=O)CCl.O=C(O)C(F)(F)F (Ac-LEHD-CH2Cl) | 0.35 | 0.95 | 0.44 | 1 | 0.62 | 1
8 | CC(=O)N[C@@H](CC(C)C)C(=O)N[C@@H](CCC(=O)O)C(=O)N[C@@H](Cc1cnc[nH]1)C(=O)N[C@H](C=O)CC(=O)O.O=C(O)C(F)(F)F (Ac-LEHD-aldehyde) | 0.81 | 0.98 | 1 | 0.49 | 1 | 0.89
9 | CC(=O)N[C@@H](CC(C)C)C(=O)N[C@@H](CCC(=O)O)C(=O)N[C@H](C(=O)N[C@H](C=O)CC(=O)O)C(C)C (Ac-LEVD-aldehyde) | 0.89 | 0.82 | 0.82 | 0.19 | 0.75 | 1
10 | CCCC[C@@H](C=O)NC(=O)[C@H](CC(C)C)NC(=O)[C@H](CC(C)C)NC(C)=O (Ac-Leu-Leu-[Nle]-aldehyde) | -0.02 | 0.18 | 0.53 | 1 | -0.08 | 0.62
11 | CC(=O)N[C@H](C(=O)N[C@@H](CC(=O)O)C(=O)N[C@H](C(=O)N[C@@H](C)C(=O)N[C@H](C=O)CC(=O)O)C(C)C)C(C)C (Ac-VDVAD-aldehyde) | 0.65 | 1 | 0.52 | 1 | 0.65 | 0.76
12 | CC[C@H](C)[C@H](NC(=O)[C@H](CCC(=O)O)NC(=O)[C@@H](NC(C)=O)C(C)C)C(=O)N[C@H](C=O)CC(=O)O.O=C(O)C(F)(F)F (Ac-VEID-aldehyde) | 0.64 | 0.97 | 1 | 0.22 | 1 | –
13 | CC(C)[C@H](NC(=O)[C@H](CCC(=O)O)NC(=O)[C@H](C)NC(=O)OC(C)(C)C)C(=O)N[C@H](C=O)CC(=O)O.O=C(O)C(F)(F)F (Boc-AEVD-aldehyde) | 0.66 | 0.93 | 0.24 | 1 | 1 | –
14 | COC(=O)CC[C@H](NC(=O)[C@H](C)NC(=O)OCc1ccccc1)C(=O)N[C@H](C(=O)N[C@@H](CC(=O)OC)C(=O)CF)C(C)C (Cbz-AE(OMe)VD(OMe)-CH2F) | 0.7 | 0.98 | 0.35 | 1 | 1 | –
15 | O=CC1CCCN1C(=O)C1CCCN1C(=O)OCc1ccccc1 (stereo not drawn) (Cbz-Pro-Pro-aldehyde; configuration not given here) | 0.88 | 0.71 | 0.22 | 0.25 | 0.37 | 0.84
16 | COC(=O)CC[C@H](NC(=O)[C@H](Cc1c[nH]c2ccccc12)NC(=O)OCc1ccccc1)C(=O)N[C@@H](Cc1cnc[nH]1)C(=O)N[C@@H](CC(=O)OC)C(=O)CF (Cbz-WE(OMe)HD(OMe)-CH2F) | 0.94 | 0.95 | 0.4 | 1 | 0.82 | 0.99

Row | SMILES | Growth Rate (HEK-293T; replicate number 1) | Growth Rate (HEK-293T; replicate number 2) | Growth Rate (Fibroblast; replicate number 1) | Growth Rate (Fibroblast; replicate number 2) | Growth Rate (U2OS; replicate number 1) | Growth Rate (U2OS; replicate number 2)
17 | CCCC(NC(=O)C(CC(C)C)NC(=O)OCc1ccccc1)C(=O)C(=O)NCc1ccccn1 (racemic) | 0.78 | 1 | 0.96 | 1 | 1 | 0.89
18 | C#CCNC(=O)[C@H](CO)NC(=O)[C@H](CCCCN(CC)CC)NC(=O)[C@H](NC(=O)[C@@H](NC(=O)c1ccc(Oc2ccccc2)cc1)C1CCCC1)[C@@H](C)CC ({Benzoyl(4-OPh)}-[Gly(cPent)][d(aIle)][Lys(Et2)]S-{NH(propargyl)}) | 0.58 | 1 | 1 | 0.24 | 1 | –
19 | CCN(CC)CCCC[C@H](NC(=O)[C@H](CC(C)C)NC(=O)[C@H](C)NC(=O)[C@H](Cc1ccccc1)NC(=O)c1ccc(C(C)(C)C)cc1)C(=O)N[C@@H](CO)C(=O)OC ({Benzoyl(4-tBu)}-FAL[Lys(Et2)]S-OMe) | 0.81 | 0.89 | 0.92 | 0.71 | 1 | –
20 | CCCN1CCN(c2ccc(C(=O)NC3(C(=O)NCC#N)CCCCC3)cc2)CC1 [BALICATIB] | 0.79 | 0.95 | 1 | – | 1 | 0.86
21 | CCS(=O)(=O)N1CC(CC#N)(n2cc(-c3ncnc4[nH]ccc34)cn2)C1 [BARICITINIB] | 0.96 | 1 | 0.11 | 0.42 | 1 | 0.77
22 | CC/C(=C(/c1ccc(/C=C/C(=O)O)cc1)c1ccc2[nH]ncc2c1)c1ccc(F)cc1Cl [BRILANESTRANT] | 0.82 | 0.87 | 1 | – | 1 | 0.77
23 | CCCC1O[C@@H]2C[C@H]3[C@@H]4CCC5=CC(=O)C=C[C@]5(C)[C@H]4[C@@H](O)C[C@]3(C)[C@]2(C(=O)CO)O1 (stereo not given in full) [BUDESONIDE] | 0.73 | 0.82 | 0.7 | 1 | 1 | 0.58
24 | O=C(CCCCCCNC(=O)c1cnc(N(c2ccccc2)c2ccccc2Cl)nc1)NO [CITARINOSTAT] | 0.9 | 1 | 1 | 0.2 | -0.08 | 0.29
25 | COc1cc(C)[nH]c(=O)c1CNC(=O)c1c(C)n([C@H](C)C2CCN(CC(F)(F)F)CC2)c2ccccc12 [CPI-1205] | 0.61 | 0.95 | 0.99 | 0.13 | 0.59 | 0.83
26 | CC(=O)O[C@]1(C(C)=O)CC[C@H]2[C@@H]3C=C(Cl)C4=CC(=O)[C@@H]5C[C@@H]5[C@]4(C)[C@H]3CC[C@@]21C [CYPROTERONE ACETATE] | 0.61 | 0.76 | 0.21 | 0.15 | 1 | 0.72
27 | Cc1nc(Nc2ncc(C(=O)Nc3c(C)cccc3Cl)s2)cc(N2CCN(CCO)CC2)n1 [DASATINIB ANHYDROUS] | -0.16 | 0.04 | 1 | 0.23 | -0.47 | -0.3
28 | CC/C(=C(/CC)c1ccc(O)cc1)c1ccc(O)cc1 [DIETHYLSTILBESTROL] | 0.72 | 0.87 | 0.45 | 0.22 | 1 | 0.74
29 | CN1CCN(c2ccc3nc(-c4c(N)c5c(F)cccc5[nH]c4=O)[nH]c3c2)CC1 [DOVITINIB] | -0.39 | -0.2 | 1 | – | -0.35 | -0.04
30 | Nc1ccccc1NC(=O)c1ccc(CNC(=O)OCc2cccnc2)cc1 [ENTINOSTAT] | 1 | – | -0.02 | 0.43 | -0.2 | 0.57
31 | COC(=O)[C@@H]1CC2=CC(=O)CC[C@]2(C)[C@@]23O[C@@H]2C[C@@]2(C)[C@@H](CC[C@@]24CCC(=O)O4)[C@H]13 [EPLERENONE] | 0.61 | 0.95 | 0.25 | 1 | 1 | –
32 | CC(=O)N1CCN([C@H]2CCC[C@@H](NC(=O)c3cc4c(F)ccc(C)c4[nH]3)C2)CC1 [EZM-0414] | 0.77 | 0.94 | 0.85 | 0.56 | 0.87 | 0.93
